# In paper PMC10762035, “Molecular basis of human trace amine-associated receptor 1 activation” (Nature Communications, 2024):
# Numbering of substitutions follows the chain as printed. Values joined by “and” are separate entries in the source; they are usually repeats but may differ in a detail not shown here. Identical values can stand only once.
# Tests used:
# Type in all cases: cell-based
# hTA1 C96S = biological target: T1, hTA1 C96S (Homo sapiens, UniProt Q96RJ0, C96S); assay: GloSensor cAMP accumulation assay, C96S mutant; conditions: log[Compound]
# T1 construct: expressed in transfected cells; host or cells: HEK293T
# T1 sequence (Q96RJ0 1-339 C96S): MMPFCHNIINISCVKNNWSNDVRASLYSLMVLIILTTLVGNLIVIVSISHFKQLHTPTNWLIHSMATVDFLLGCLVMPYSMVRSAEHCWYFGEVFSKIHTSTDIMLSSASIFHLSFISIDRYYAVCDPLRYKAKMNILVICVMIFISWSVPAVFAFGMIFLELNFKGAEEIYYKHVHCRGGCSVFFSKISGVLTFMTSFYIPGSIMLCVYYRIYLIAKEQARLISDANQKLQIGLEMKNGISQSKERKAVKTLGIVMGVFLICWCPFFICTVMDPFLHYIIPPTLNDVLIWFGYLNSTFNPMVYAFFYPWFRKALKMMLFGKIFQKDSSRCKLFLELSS
# hTA1 C178S = biological target: T2, hTA1 C178S (Homo sapiens, UniProt Q96RJ0, C178S); assay: GloSensor cAMP accumulation assay, C178S mutant; conditions: for C178S - Normalized Luminescence Counts (N=2): log[Compound], single replicates
# T2 construct: expressed in transfected cells; host or cells: HEK293T
# T2 sequence (Q96RJ0 1-339 C178S): T1 sequence (Q96RJ0 1-339 C96S) with S96C, C178S
# hTA1 W264F = biological target: T3, hTA1 W264F (Homo sapiens, UniProt Q96RJ0, W264F); assay: GloSensor cAMP accumulation assay, W264F mutant;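 note: cells transiently transfected with receptor plus GloSensor, luminescence read 30 min after agonist addition at room temperature, concentration-response curves fitted by log(agonist) vs response regression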
# T3 construct: expressed in transfected cells; host or cells: HEK293T
# T3 sequence (Q96RJ0 1-339 W264F): T1 sequence (Q96RJ0 1-339 C96S) with S96C, W264F
# hTA1 I290N = biological target: T4, hTA1 I290N (Homo sapiens, UniProt Q96RJ0, I290N); assay: GloSensor cAMP accumulation assay, I290N mutant;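 note: cells transiently co-expressing hTA1 and the GloSensor cAMP biosensor, luminescence read 30 min after compound addition at room temperature, efficacy scaled to the maximal β-PEA response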
# T4 construct: expressed in transfected cells; host or cells: HEK293T
# T4 sequence (Q96RJ0 1-339 I290N): T1 sequence (Q96RJ0 1-339 C96S) with S96C, I290N
# hTA1 S107C = biological target: T5, hTA1 S107C (Homo sapiens, UniProt Q96RJ0, S107C); assay: GloSensor cAMP accumulation assay, S107C mutant;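 note: cells transiently co-expressing receptor and GloSensor biosensor, luminescence read after 30 min agonist exposure at room temperature, concentration-response fitted by nonlinear regression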
# T5 construct: expressed in transfected cells; host or cells: HEK293T
# T5 sequence (Q96RJ0 1-339 S107C): T1 sequence (Q96RJ0 1-339 C96S) with S96C, S107C
# [1] = C178S, each row one experiment (N=2), 3 replicates
structure (smiles),measurement,setting,value
"NCCc1ccc(Oc2ccc(O)cc2)c(I)c1 [T1AM, 3-iodothyronamine]",Normalized Luminescence Counts,"hTA1 C96S; C96S, M = -5, single replicates (N=2)",-4.527 and 0.08646 and -0.5726 and 12.7948 and 5.048 and 3.112
same,Normalized Luminescence Counts,"hTA1 C96S; C96S, M = -5.522, single replicates (N=2)",-1.232 and -3.209 (2×) and 24.4145 and 1.175 and -2.698
same,Normalized Luminescence Counts,"hTA1 C96S; C96S, M = -6, single replicates (N=2)",-1.891 and -5.845 and -6.504 and 30.2243 and -2.698 and -0.7614
same,Normalized Luminescence Counts,"hTA1 C96S; C96S, M = -6.522, single replicates (N=2)",-5.186 (2×) and -5.845 and -10.4444 and -0.7614 and -2.698
same,Normalized Luminescence Counts,"hTA1 C96S; C96S, M = -7, single replicates (N=2)",-3.209 and -6.504 and -1.891 and -14.3176 and -8.508 and -10.4444
same,Normalized Luminescence Counts,"hTA1 C96S; C96S, M = -7.522, single replicates (N=2)",-1.891 and -5.186 (2×) and -4.6346 and 3.112 and -6.571
same,Normalized Luminescence Counts,"hTA1 C96S; C96S, M = -8, single replicates (N=2)",0.08646 and -3.868 and -1.232 and 14.7315 and 18.6047 (2×)
same,Normalized Luminescence Counts,"hTA1 C96S; C96S, M = -8.522, single replicates (N=2)",-1.891 and -1.232 (2×) and 14.7315 (2×) and 8.922
same,Normalized Luminescence Counts,"hTA1 C96S; C96S, M = -9, single replicates (N=2)",-1.232 and -1.891 (2×) and 30.2243 and 37.9707 and 3.112
same,Normalized Luminescence Counts,"hTA1 C96S; C96S, M = -9.522, single replicates (N=2)",-3.209 and -1.891 and -1.232 and 16.6681 and 5.048 and 20.5413
same,Normalized Luminescence Counts,"hTA1 C96S; C96S, M = -10, single replicates (N=2)",2.064 and -0.5726 and 0.7455 and -0.7614 and -4.6346 and -6.571
same,Normalized Luminescence Counts,"hTA1 C96S; C96S, M = -10.522, single replicates (N=2)",-1.891 and -3.868 and 0.08646 and 1.175 and -6.571 and -4.6346
same,Normalized Luminescence Counts,"hTA1 C96S; C96S, M = -11, single replicates (N=2)",1.4045 and 0.7455 (2×) and 34.0975 (2×) and 14.7315
same,Normalized Luminescence Counts,"hTA1 C96S; C96S, M = -11.522, single replicates (N=2)",1.4045 (2×) and -0.5726 and 24.4145
same,Normalized Luminescence Counts,"hTA1 C96S; M = -11.522, single replicates, mutant block above C178S",-0.4742 (2×) and -0.6563 and 0.6424 and -0.05214 and -0.3727
same,Normalized Luminescence Counts,"hTA1 C96S; M = -12, single replicates, mutant block above C178S",-0.08731 (2×) and -0.5653 and 0.1081 and 0.001279 (2×)
same,Normalized Luminescence Counts,"hTA1 C96S; M = -12.522, single replicates, mutant block above C178S",-0.2011 and 0.5045 and -0.6791 and -0.1056 and 0.9095 and -0.05214
same,"pEC50 values, Mean",hTA1 C178S; [1],5.899 and 6.116
same,"ΔpEC50 values (each mutant value - WT average), Mean",hTA1 C178S; [1],-0.2302 and -0.01318
same,Span ± SEM (Emax normalized to β-PEA),"hTA1 C178S; C178S, n=2",86.82 ± 7.63
same,pEC50 ± SEM,"hTA1 C178S; C178S, n=2",6.01 ± 0.05
same,EC50,"hTA1 C178S; C178S, n=2, read-out: EC50",983 nM
same,"Emax values, Mean","hTA1 C178S; C178S, β-PEA = 100, each row one experiment (N=2), 3 replicates",79.1908 and 94.4471
same,C178S - Normalized Luminescence Counts (N=2),hTA1 C178S; M = -5,73.1003 and 72.1657 and 63.8478 and 81.3738 and 108.419 and 79.3694
same,C178S - Normalized Luminescence Counts (N=2),hTA1 C178S; M = -5.522,52.0253 and 55.0627 and 58.1468 and 73.8647 and 83.1688 and 53.1323
same,C178S - Normalized Luminescence Counts (N=2),hTA1 C178S; M = -6,32.3989 and 32.726 and 30.2026 and 62.7356 and 57.5001 and 49.3328
same,C178S - Normalized Luminescence Counts (N=2),hTA1 C178S; M = -6.522,18.0529 and 16.5576 and 18.9875 and 30.7245 and 26.2071 and 22.4375
same,C178S - Normalized Luminescence Counts (N=2),hTA1 C178S; M = -7,4.642 and 4.221 and 4.735 and 9.753 and 8.496 and 8.018
same,C178S - Normalized Luminescence Counts (N=2),hTA1 C178S; M = -7.522,0.763 and 0.4359 and 0.01533 and 0.9572 and 2.124 and 0.4486
same,C178S - Normalized Luminescence Counts (N=2),hTA1 C178S; M = -8,-0.8725 and -0.6389 and -0.8258 and 3.769 and 2.842 and 2.124
same,C178S - Normalized Luminescence Counts (N=2),hTA1 C178S; M = -8.522,-0.6389 and -1.6202 and -1.667 and 1.376 and 0.02978 and -2.184
same,C178S - Normalized Luminescence Counts (N=2),hTA1 C178S; M = -9,-0.5921 and -1.854 and -1.48 and 0.05969 and 0.9871 and -1.316
same,C178S - Normalized Luminescence Counts (N=2),hTA1 C178S; M = -9.522,-1.293 and -1.48 and -0.6389 and -0.03006 and -0.3591 and -0.4489
same,C178S - Normalized Luminescence Counts (N=2),hTA1 C178S; M = -10,-0.2183 and -0.5454 and -0.966 and -0.5087 and 0.4187 and -1.556
same,C178S - Normalized Luminescence Counts (N=2),hTA1 C178S; M = -10.522,-0.7791 and -0.8258 and -0.8725 and -0.2993 and -0.5386 and -2.962
same,C178S - Normalized Luminescence Counts (N=2),hTA1 C178S; M = -11,-1.433 and -0.8258 and -0.4987 and 1.047 and 0.4785 and -0.2993
same,C178S - Normalized Luminescence Counts (N=2),hTA1 C178S; M = -11.522,-1.293 and -0.6389 and -1.059 and 2.124 and 1.1367 and -0.9276
same,C178S - Normalized Luminescence Counts (N=2),hTA1 C178S; M = -12,-0.1249 and -0.6856 and 0.06206 and -0.2096 and -0.5386 and -1.227
same,C178S - Normalized Luminescence Counts (N=2),hTA1 C178S; M = -12.522,-0.7323 and -0.7791 and -0.8725 and 0.2691 and -0.419 and 0.299
same,ΔEmax values (each mutant value - WT average),hTA1 W264F; W246F mutant (so in the source) minus WT average,-30.8369
same,"Emax values, Mean","hTA1 W264F; W246F mutant (so in the source), β-PEA = 100, each line an independent experiment, 3 replicates",17.7915
same,Span ± SEM (Emax normalized to β-PEA),"hTA1 W264F; W264F, n=2",28.7 ± 10.91
same,pEC50 ± SEM,"hTA1 W264F; W264F, n=2",4.95 ± 0.97
same,EC50,"hTA1 W264F; W264F, n=2, read-out: EC50",11300 nM
same,increase in potency vs wild type,hTA1 I290N; I290N,about 5 fold
same,Span ± SEM (Emax normalized to β-PEA),"hTA1 I290N; I290N, n=2",76.97 ± 5.53
same,pEC50 ± SEM,"hTA1 I290N; I290N, n=2",6.86 ± 0.07
same,EC50,"hTA1 I290N; I290N, n=2, read-out: EC50",139 nM
same,"cAMP accumulation response, single replicate values (source data, Supplementary Figure 5)","hTA1 I290N; hTA1 I290N (N=2), log[Compound], M = -5",86.8237 and 86.3523 and 77.8671 and 98.8421
same,"ΔpEC50 values (each mutant value - WT average), Mean",hTA1 I290N; hTA1 I290N mutant minus WT average,0.6614 and 0.7922
same,"pEC50 values, Mean","hTA1 I290N; hTA1 I290N mutant, Figure 3B source data, each grid row a separate experiment, 3 replicates",6.791 and 6.921
same,"Emax values, Mean","hTA1 I290N; hTA1 I290N mutant, β-PEA set to 100, each grid row a separate experiment, 3 replicates",82.4992 and 71.4451
same,ΔEmax values (each mutant value - WT average),hTA1 S107C; S107C mutant minus WT average,9.303
same,"Emax values, Mean","hTA1 S107C; S107C mutant, β-PEA = 100, each line an independent experiment, 3 replicates",79.7491 and 64.3505
same,Span ± SEM (Emax normalized to β-PEA),"hTA1 S107C; S107C, n=2",72.05 ± 7.70
same,pEC50 ± SEM,"hTA1 S107C; S107C, n=2",5.87 ± 0.53
same,EC50,"hTA1 S107C; S107C, n=2, read-out: EC50",1350 nM
